{
  "source": "patent US20190381086A1",
  "about": "“INHIBITION OF NEDDYLATION USING GLYCYL-tRNA SYNTHETASE INHIBITORS” (The Scripps Research Institute, priority 2015, published 2019)",
  "key": {"A549/ATCC [1]": {"system": "A549/ATCC", "assay_type": "cell-based", "conditions": "Non-Small Cell Lung Cancer"}, "ACHN": {"system": "ACHN", "experiment": "NCI 60 Cell One-Dose Screen", "assay_type": "cell-based, human", "conditions": "Renal Cancer, single dose 10^-5 M"}, "A549/ATCC [2]": {"system": "A549/ATCC", "experiment": "NCI 60 Cell One-Dose Screen", "assay_type": "cell-based, human", "conditions": "Non-Small Cell Lung Cancer, single dose 10^-5 M"}, "K-562": {"system": "K-562", "assay_type": "cell-based", "conditions": "K-562, Leukemia"}, "SNB-75": {"system": "SNB-75", "assay_type": "cell-based", "conditions": "SNB-75, CNS Cancer"}, "HOP-92": {"system": "HOP-92", "experiment": "NCI 60 Cell One-Dose Screen", "assay_type": "cell-based, human", "conditions": "HOP-92, Non-Small Cell Lung Cancer; single dose 10^-5 M"}, "SNB-19": {"system": "SNB-19", "assay_type": "cell-based", "conditions": "SNB-19, CNS Cancer"}, "T-47D": {"system": "T-47D", "assay_type": "cell-based", "conditions": "Breast Cancer"}, "OVCAR-5": {"system": "OVCAR-5", "experiment": "NCI 60 Cell One-Dose Screen", "assay_type": "cell-based, human", "conditions": "OVCAR-5, Ovarian Cancer; single dose 10^-5 M"}, "HS 578T": {"system": "HS 578T", "experiment": "NCI 60 Cell One-Dose Screen", "assay_type": "cell-based, human", "conditions": "Breast Cancer, single dose 10^-5 M"}, "OVCAR-3 [3]": {"system": "OVCAR-3"}, "RPMI-8226": {"system": "RPMI-8226", "assay_type": "cell-based", "conditions": "RPMI-8226, Leukemia"}, "IGROV1 [4]": {"system": "IGROV1", "experiment": "NCI 60 Cell One-Dose Screen", "assay_type": "cell-based, human", "conditions": "IGROV1, Ovarian Cancer; single dose 10^-5 M"}, "COLO 205": {"system": "COLO 205", "assay_type": "cell-based", "conditions": "COLO 205, Colon Cancer"}, "MDA-MB-231/ATCC": {"system": "MDA-MB-231/ATCC", "assay_type": "cell-based", "conditions": "Breast Cancer"}, "CAKI-1": {"system": "CAKI-1", "experiment": "NCI 60 Cell One-Dose Screen", "assay_type": "cell-based, human", "conditions": "CAKI-1, Renal Cancer; single dose 10^-5 M"}, "SN12C": {"system": "SN12C", "experiment": "NCI 60 Cell One-Dose Screen", "assay_type": "cell-based, human", "conditions": "Renal Cancer, single dose 10^-5 M"}, "MCF7": {"system": "MCF7", "experiment": "NCI 60 Cell One-Dose Screen", "assay_type": "cell-based, human", "conditions": "MCF7, Breast Cancer; single dose 10^-5 M"}, "PC-3": {"system": "PC-3", "experiment": "NCI 60 Cell One-Dose Screen", "assay_type": "cell-based, human", "conditions": "PC-3, Prostate Cancer; single dose 10^-5 M"}, "SK-MEL-28": {"system": "SK-MEL-28", "assay_type": "cell-based", "conditions": "SK-MEL-28, Melanoma"}, "IGROV1 [5]": {"system": "IGROV1", "assay_type": "cell-based", "conditions": "IGROV1, Ovarian Cancer"}, "MALME-3M": {"system": "MALME-3M", "assay_type": "cell-based", "conditions": "Melanoma"}, "CCRF-CEM": {"system": "CCRF-CEM", "assay_type": "cell-based", "conditions": "Leukemia"}, "BT-549": {"system": "BT-549", "assay_type": "cell-based", "conditions": "BT-549, Breast Cancer"}, "U251": {"system": "U251", "assay_type": "cell-based", "conditions": "U251, CNS Cancer"}, "OVCAR-3 [6]": {"system": "OVCAR-3", "experiment": "NCI 60 Cell One-Dose Screen", "assay_type": "cell-based, human", "conditions": "OVCAR-3, Ovarian Cancer; single dose 10^-5 M"}, "DU-145": {"system": "DU-145", "assay_type": "cell-based", "conditions": "DU-145, Prostate Cancer"}, "UACC-62": {"system": "UACC-62", "assay_type": "cell-based", "conditions": "UACC-62, Melanoma"}, "HOP-62": {"system": "HOP-62", "assay_type": "cell-based", "conditions": "HOP-62, Non-Small Cell Lung Cancer"}, "HT29": {"system": "HT29", "experiment": "NCI 60 Cell One-Dose Screen", "assay_type": "cell-based, human", "conditions": "HT29, Colon Cancer; single dose 10^-5 M"}, "[7]": {"conditions": "Homo sapiens, read-out: LC50 (the source's name)"}},
  "data": [
    {"smiles": "NCC(=O)NS(=O)(=O)OC[C@H]1O[C@@H](n2cnc3c(N)ncnc32)[C@H](O)[C@@H]1O", "note": "[GlySA, glycylsulfamoyladenosine]", "values": [
      {"measurement": "GI50", "setting": "A549/ATCC [1]; Homo sapiens", "result": 2.34, "unit": "µM"},
      {"measurement": "CC50", "setting": "A549/ATCC [1]; [7]", "result": 19.1, "unit": "µM"},
      {"measurement": "LC50/GI50", "setting": "A549/ATCC [1]", "result": 8.1},
      {"measurement": "Growth inhibition count (%)", "setting": "ACHN", "result": 11.79, "unit": "%"},
      {"measurement": "Growth inhibition count (%)", "setting": "A549/ATCC [2]", "result": 9.701, "unit": "%"},
      {"measurement": "GI50", "setting": "K-562; Homo sapiens, K562", "result": 3.71, "unit": "µM"},
      {"measurement": "LC50/GI50", "setting": "K-562", "result": ">26.9"},
      {"measurement": "GI50", "setting": "SNB-75; Homo sapiens", "result": 1.15, "unit": "µM"},
      {"measurement": "CC50", "setting": "SNB-75; [7]", "result": 9.55, "unit": "µM"},
      {"measurement": "LC50/GI50", "setting": "SNB-75", "result": 8.3},
      {"measurement": "Growth inhibition count (%)", "setting": "HOP-92", "result": 17.26, "unit": "%"},
      {"measurement": "GI50", "setting": "SNB-19; Homo sapiens", "result": 0.38, "unit": "µM"},
      {"measurement": "CC50", "setting": "SNB-19; [7]", "result": 6.92, "unit": "µM"},
      {"measurement": "LC50/GI50", "setting": "SNB-19", "result": 18.2},
      {"measurement": "LC50/GI50", "setting": "T-47D", "result": ">42.7"},
      {"measurement": "GI50", "setting": "T-47D; Homo sapiens, T47D", "result": 2.34, "unit": "µM"},
      {"measurement": "CC50", "setting": "T-47D; Homo sapiens, T47D, read-out: LC50 (the source's name)", "result": "> 100", "unit": "µM"},
      {"measurement": "Growth inhibition count (%)", "setting": "OVCAR-5", "result": 0.2916, "unit": "%"},
      {"measurement": "Growth inhibition count (%)", "setting": "HS 578T", "result": 16.07, "unit": "%"},
      {"measurement": "GI50", "setting": "OVCAR-3 [3]; Homo sapiens, OVCAR-3", "result": 2, "unit": "µM"},
      {"measurement": "CC50", "setting": "OVCAR-3 [3]; Homo sapiens, OVCAR-3, read-out: LC50 (μM)", "result": 10, "unit": "µM"},
      {"measurement": "LC50/GI50", "setting": "OVCAR-3 [3]; OVCAR-3, Ovarian Cancer", "result": 5.0},
      {"measurement": "GI50", "setting": "RPMI-8226; Homo sapiens", "result": 3.31, "unit": "µM"},
      {"measurement": "CC50", "setting": "RPMI-8226; [7]", "result": "> 100", "unit": "µM"},
      {"measurement": "LC50/GI50", "setting": "RPMI-8226", "result": ">30.2"},
      {"measurement": "Growth inhibition count (%)", "setting": "IGROV1 [4]", "result": 11.7, "unit": "%"},
      {"measurement": "LC50/GI50", "setting": "COLO 205", "result": 28.2},
      {"measurement": "GI50", "setting": "COLO 205; Homo sapiens", "result": 2.29, "unit": "µM"},
      {"measurement": "CC50", "setting": "COLO 205; [7]", "result": 64.6, "unit": "µM"},
      {"measurement": "LC50/GI50", "setting": "MDA-MB-231/ATCC", "result": 34.7},
      {"measurement": "GI50", "setting": "MDA-MB-231/ATCC; Homo sapiens", "result": 0.525, "unit": "µM"},
      {"measurement": "CC50", "setting": "MDA-MB-231/ATCC; [7]", "result": 18.2, "unit": "µM"},
      {"measurement": "Growth inhibition count (%)", "setting": "CAKI-1", "result": 5.11, "unit": "%"},
      {"measurement": "Growth inhibition count (%)", "setting": "SN12C", "result": 1.03, "unit": "%"},
      {"measurement": "Growth inhibition count (%)", "setting": "MCF7", "result": 8.271, "unit": "%"},
      {"measurement": "Growth inhibition count (%)", "setting": "PC-3", "result": 9.662, "unit": "%"},
      {"measurement": "GI50", "setting": "SK-MEL-28; Homo sapiens", "result": 1.95, "unit": "µM"},
      {"measurement": "CC50", "setting": "SK-MEL-28; [7]", "result": 8.91, "unit": "µM"},
      {"measurement": "LC50/GI50", "setting": "SK-MEL-28", "result": 4.6},
      {"measurement": "GI50", "setting": "IGROV1 [5]; Homo sapiens, IGROV-1", "result": 3.02, "unit": "µM"},
      {"measurement": "CC50", "setting": "IGROV1 [5]; Homo sapiens, IGROV-1, read-out: LC50 (the source's name)", "result": 47.9, "unit": "µM"},
      {"measurement": "LC50/GI50", "setting": "IGROV1 [5]", "result": 15.8},
      {"measurement": "GI50", "setting": "MALME-3M; Homo sapiens", "result": 1.91, "unit": "µM"},
      {"measurement": "CC50", "setting": "MALME-3M; [7]", "result": 7.76, "unit": "µM"},
      {"measurement": "LC50/GI50", "setting": "MALME-3M", "result": 4.1},
      {"measurement": "GI50", "setting": "CCRF-CEM; Homo sapiens", "result": 3.71, "unit": "µM"},
      {"measurement": "LC50/GI50", "setting": "CCRF-CEM", "result": ">26.9"},
      {"measurement": "LC50/GI50", "setting": "BT-549", "result": 10.7},
      {"measurement": "GI50", "setting": "BT-549; Homo sapiens", "result": 2.34, "unit": "µM"},
      {"measurement": "GI50", "setting": "U251; Homo sapiens, U-251", "result": 0.55, "unit": "µM"},
      {"measurement": "CC50", "setting": "U251; Homo sapiens, U-251, read-out: LC50 (the source's name)", "result": 5.75, "unit": "µM"},
      {"measurement": "LC50/GI50", "setting": "U251", "result": 10.5},
      {"measurement": "Growth inhibition count (%)", "setting": "OVCAR-3 [6]", "result": 10.05, "unit": "%"},
      {"measurement": "LC50/GI50", "setting": "DU-145", "result": ">144.5"},
      {"measurement": "GI50", "setting": "DU-145; Homo sapiens", "result": 0.692, "unit": "µM"},
      {"measurement": "GI50", "setting": "UACC-62; Homo sapiens", "result": 1.86, "unit": "µM"},
      {"measurement": "LC50/GI50", "setting": "UACC-62", "result": 4.2},
      {"measurement": "LC50/GI50", "setting": "HOP-62", "result": ">269.2"},
      {"measurement": "GI50", "setting": "HOP-62; Homo sapiens", "result": 0.372, "unit": "µM"},
      {"measurement": "CC50", "setting": "HOP-62; [7]", "result": "> 100", "unit": "µM"},
      {"measurement": "Growth inhibition count (%)", "setting": "HT29", "result": 6.002, "unit": "%"}
    ]}
  ]
}
